Assay results from patent publication US8809321B2, “Diaryl ether linked pyrrolo [2,1-c][1,4] benzodiazepine hybrids and process for the preparation thereof” (Council of Scientific and Industrial Research, priority 2011, dated 2014).
Like-named read-outs stand apart in the source and are kept apart here.

Assays:
[1] = tested on: ZR-751 breast cancer cell line; experiment: MTT assay, 48 h continuous drug exposure, ZR-751; assay type: cell-based, human; conditions: read-out: GI50 ZR-751
Experimental: (§1) For each compound, dose response curves for each cell line were measured at a minimum of five concentrations at 10 fold dilutions. A protocol of 48 h continuous drug exposure was used and a MTT assay was used to estimate cell viability or growth. The percent of cell growth (GI50) compared with the control was calculated.

[2] = tested on: SiHa Cervix cancer cell line; experiment: MTT assay, 48 h continuous drug exposure, SiHa; assay type: cell-based, human; conditions: read-out: GI50 SiHa
Experimental: as §1

[3] = tested on: A2780 ovarian cancer cell line; experiment: MTT assay, 48 h continuous drug exposure, A2780; assay type: cell-based, human; conditions: read-out: GI50 A2780
Experimental: as §1

[4] = tested on: A549 lung cancer cell line; experiment: MTT assay, 48 h continuous drug exposure, A549; assay type: cell-based, human
Experimental: (§2) Some of the C8-linked diaryl ether-PBD hybrids have been tested against eleven human tumour cell lines derived from seven cancer types (lung cancer, colon cancer, cervix, ovarian cancer, oral cancer, prostate cancer and breast cancer) as per Tata protocol as shown in Table 2. For each compound, dose response curves for each cell line were measured at a minimum of five concentrations at 10 fold dilutions. A protocol of 48 h continuous drug exposure was used and a MTT assay was used to estimate cell viability or growth. The percent of cell growth (GI50) compared with the control was calculated. Some of the compounds have been evaluated for their in vitro cytotoxicity in eleven cell lines from seven human cancer types. The results are expressed as GI50 determined relative to that of untreated control cells (Table-2).

[5] = tested on: DWD oral cancer cell line; experiment: MTT assay, 48 h continuous drug exposure, DWD; assay type: cell-based, human; conditions: read-out: GI50 DWD
Experimental: as §1

[6] = tested on: MCF7 breast cancer cell line; experiment: MTT assay, 48 h continuous drug exposure, MCF7; assay type: cell-based, human
Experimental: as §2

[7] = tested on: Hop62 lung cancer cell line; experiment: MTT assay, 48 h continuous drug exposure, Hop62; assay type: cell-based, human; conditions: read-out: GI50 Hop62
Experimental: as §1

[8] = tested on: PC3 prostrate cancer cell line; experiment: MTT assay, 48 h continuous drug exposure, PC3; assay type: cell-based, human; conditions: read-out: GI50 PC3
Experimental: as §1

[9] = tested on: Colo205 colon cancer cell line; experiment: MTT assay, 48 h continuous drug exposure, Colo205; assay type: cell-based, human
Experimental: as §2

[10] = tested on: Gurav oral cancer cell line; experiment: MTT assay, 48 h continuous drug exposure, Gurav; assay type: cell-based, human; conditions: read-out: GI50 Gurav
Experimental: as §1

[11] = tested on: duplex-form calf thymus DNA (CT-DNA); experiment: Thermal denaturation studies with calf thymus DNA (DNA binding affinity); conditions: [PBD]:[DNA] molar ratio 1:5, CT-DNA 100 μM, ligand 20 μM, sodium phosphate buffer pH 7.00; for (ΔTm ° C.) after incubation at 37° C. for 0 h: 0 h at 37° C.; for (ΔTm ° C.) after incubation at 37° C. for 18 h: 18 h at 37° C.
Experimental: DNA Binding Affinity of Diaryl Ether Linked PBD Hybrids: Compounds have been subjected to thermal denaturation studies with duplex-form calf thymus DNA (CT-DNA) using a modification of a reported procedure (Newman, M. S. Carcinog-compr. Surv. 1976, 1, 203; ([…].; Loy, M.; Hoffman, Carcinog-compr. […] The DNA-PBD solutions have been incubated at 37° C. for 0 and 18 h prior to analysis. […] DNA helix→coil transition temperatures (Tm) have been obtained from the maxima in the d(A260)/dT derivative plots. […] The DNA binding activity for these novel C8-linked diaryl ether PBD hybrids has been examined by thermal denaturation studies using calf thymus (CT) DNA. […] The data for the compounds are included in Table 1 for comparison.

[12] = breast cancer cell line, 48 h exposure, MTT
[13] = Cervix cancer cell line, 48 h exposure, MTT
[14] = ovarian cancer cell line, 48 h exposure, MTT
[15] = oral cancer cell line, 48 h exposure, MTT
[16] = lung cancer cell line, 48 h exposure, MTT
[17] = prostrate cancer cell line, 48 h exposure, MTT
[18] = Homo sapiens, A549, 48 h exposure
[19] = Homo sapiens, MCF7, 48 h exposure
[20] = Homo sapiens, COLO 205, 48 h exposure

SMILES | GI50 [1, 12] [nM] | GI50 [2, 13] [nM] | GI50 [3, 14] [nM] | GI50 ([4]; 48 h exposure) [nM] | GI50 [5, 15] [nM] | GI50 ([6]; 48 h exposure) [nM] | GI50 [7, 16] [nM] | GI50 [8, 17] [nM] | GI50 ([9]; 48 h exposure) [nM] | GI50 [10, 15] [nM] | (ΔTm ° C.) after incubation at 37° C. for 0 h [11] [°C] | (ΔTm ° C.) after incubation at 37° C. for 18 h [11] [°C] | GI50 [4, 18] [nM] | GI50 [6, 19] [nM] | GI50 [9, 20] [nM] | also measured
COc1ccc(Oc2cc(OCCCCCOc3cc4c(cc3OC)C(=O)N3CCC[C@H]3C=N4)ccc2I)cc1OC [17g, 7-Methoxy-(8-5-[4-iodo-3-(3,4-dimethoxyphenoxy)phenoxy]pentyloxy)-(11aS)-1,2,3,11a-tetrahydro-5H-pyrrolo[2,1-c][1,4]benzodiazepin-5-one] | 1950 | 190 | 180 | 1650 | 180 | < 100 | 2250 | 170 | 2200 | 190 | 4.3 | 5.1 | – | – | – | –
COc1cc2c(cc1OCCCCCN1CCN(C(=O)c3ccc(Oc4cc(OC)c(OC)c(OC)c4)c(N)c3)CC1)N=C[C@@H]1CCCN1C2=O [24c] | 180 | 2500 | 2000 | 170 | 160 | 170 | 2260 | 170 | 540 | 150 | 4.5 | 6.0 | – | – | – | –
COc1cc2c(cc1OCCCCCOc1cccc(Oc3cc(OC)c(OC)c(OC)c3)c1[N+](=O)[O-])N=C[C@@H]1CCCN1C2=O [21g, 7-Methoxy-(8-3-[3-(3,4,5-trimethoxyphenoxy)-2-nitrophenoxy]pentyloxy)-(11aS)-1,2,3,11a-tetrahydro-5H-pyrrolo[2,1-c][1,4]benzodiazepin-5-one] | 180 | 2210 | 2100 | 2020 | 170 | 2300 | 2130 | 190 | 170 | 160 | 4.9 | 6.2 | – | – | – | –
COc1ccc(Oc2ccc(C(=O)N3CCN(CCCCCOc4cc5c(cc4OC)C(=O)N4CCC[C@H]4C=N5)CC3)cc2[N+](=O)[O-])cc1 [31c] | 180 | 3880 | 190 | 170 | 180 | 180 | 190 | 170 | 170 | 160 | 3.9 | 5.6 | – | – | – | –
C1=CC2=CN=c3ccccc3=CN2C1 [DC-81, pyrrolo[2,1-c][1,4]benzodiazepine, reference compound] | – | – | – | – | – | – | – | – | – | – | 0.3 | 0.7 | 160 | 170 | 110 | GI50 ([1]; Homo sapiens, ZR-75-1, 48 h): 160 nM; GI50 ([2]; Homo sapiens, SiHa, 48 h): 140 nM; GI50 ([3]; Homo sapiens, A2780, 48 h): 150 nM; GI50 ([5]; Homo sapiens, 48 h): 200 nM; GI50 ([7]; Homo sapiens, HOP-62, 48 h): 170 nM; GI50 ([8]; Homo sapiens, 48 h): 170 nM; GI50 ([10]; Homo sapiens, Gurav, 48 h): 1490 nM
COc1ccc(Oc2ccc(C(=O)N3CCNCC3)cc2N)cc1OC [7b, [3-amino-4-(3,4-dimethoxyphenoxy)phenyl](piperazino)methanone, reference compound] | – | – | – | – | – | – | – | – | – | – | 0.2 | 0.5 | > 50000 | > 50000 | > 50000 | –
COc1ccc(Oc2cc(OCCCCCOc3cc4c(cc3OC)C(=O)N3CCC[C@H]3C=N4)ccc2N)cc1 [10g, 7-Methoxy-(8-5-[4-amino-3-(4-methoxyphenoxy)phenoxy]pentyloxy)-(11aS)-1,2,3,11a-tetrahydro-5H-pyrrolo[2,1-c][1,4]benzodiazepin-5-one] | 3100 | 1560 | 2300 | 2840 | 2400 | 2300 | 2100 | 2840 | 1500 | 2430 | 2.9 | 3.6 | – | – | – | –
COc1cc2c(cc1OCCCCCOc1ccc(Oc3cc(OC)c(OC)c(OC)c3)c([N+](=O)[O-])c1)N=C[C@@H]1CCCN1C2=O [21c, 7-Methoxy-(8-3-[4-(3,4,5-timethoxyphenoxy)-3-nitrophenoxy]pentyloxy)-(11aS)-1,2,3,11a-tetrahydro-5H-pyrrolo[2,1-c][1,4]benzodiazepin-5-one] | 1600 | 1260 | 1560 | 2500 | 2130 | 1850 | 3100 | 1580 | 2510 | 2860 | 3.9 | 5.1 | – | – | – | –
COc1cccc2c1C(=O)c1c(O)c3c(c(O)c1C2=O)C[C@@](O)(C(=O)CO)C[C@@H]3O[C@H]1C[C@H](N)[C@H](O)[C@H](C)O1 [ADR, adriamycin, reference compound] | – | – | – | – | – | – | – | – | – | – | – | – | < 100 | 130 | < 100 | GI50 ([1]; Homo sapiens, ZR-75-1, breast cancer cell line, 48 h exposure, MTT): 110 nM; GI50 ([2]; Homo sapiens, SiHa, Cervix cancer cell line, 48 h exposure, MTT): 160 nM; GI50 ([3]; Homo sapiens, A2780, ovarian cancer cell line, 48 h exposure, MTT): < 100 nM; GI50 ([5]; Homo sapiens, oral cancer cell line, 48 h exposure, MTT): 120 nM; GI50 ([7]; Homo sapiens, HOP-62, lung cancer cell line, 48 h exposure, MTT): 150 nM; GI50 ([8]; Homo sapiens, prostrate cancer cell line, 48 h exposure, MTT): 160 nM; GI50 ([10]; Homo sapiens, Gurav, oral cancer cell line, 48 h exposure, MTT): < 100 nM
COc1ccc(Oc2ccc(C(=O)N3CCN(CCCCCOc4cc5c(cc4OC)C(=O)N4CCC[C@H]4C=N5)CC3)cc2N)cc1 [22c] | 190 | 3250 | 190 | 180 | 180 | 170 | 2300 | 190 | 170 | 160 | 3.1 | 4.2 | – | – | – | –
COc1ccc(Oc2ccc(C(=O)N3CCN(CCCCCOc4cc5c(cc4OC)C(=O)N4CCC[C@H]4C=N5)CC3)cc2N)cc1OC [23c] | 190 | 2470 | 180 | 180 | 150 | 150 | 2280 | 170 | 160 | 120 | 3.6 | 4.5 | – | – | – | –
COc1ccc(Oc2ccc(OCCCCCOc3cc4c(cc3OC)C(=O)N3CCC[C@H]3C=N4)cc2I)cc1 [16c] | 3300 | 1420 | 2300 | 2700 | 2600 | 2100 | 1500 | 2120 | 2220 | 2230 | 3.6 | 4.6 | – | – | – | –
COc1ccc(Oc2ccc(O)cc2N)cc1OC [5b, 3-amino-4-(3,4-dimethoxyphenoxy)phenol, reference compound] | – | – | – | – | – | – | – | – | – | – | 0.1 | 0.2 | > 50000 | > 50000 | > 50000 | –
